# Test results taken from US20250206758A1, “SUBSTITUTED BRIDGED RING INHIBITOR, PREPARATION METHOD THEREFOR AND APPLICATION THEREOF” (SUZHOU ZELGEN BIOPHARMACEUTICALS CO., LTD., priority 2022, published 2025).
# Like-named read-outs stand apart in the source and are kept apart here.
# Key:
# GP2D = experiment: Cell proliferation inhibition, GP2D (CellTiter-Glo 3D, 7 days); assay type: cell-based
# Experimental: (§1) • (a) Resuscitating cells in T75 cell culture flask: • (b) When the cell confluence reaches 80-90%, subculturing the cells.
# (§2) The diluted test compound was added to a 384-well cell culture plate with a nanoliter pipetting system, and duplicate wells were set up. An equal volume of culture medium was added to the positive control group; and an equal volume of DMSO was added to the negative control group, then centrifugation was conducted at 1000 rpm for 1 min at room temperature.
# (§3) Cells were inoculated into a) 384-well culture plate, with an equal volume of cells added to the negative control group, and only an equal volume of culture medium added to the positive control group. The plate was centrifuged at 1000 rpm for 1 min at room temperature, and the final DMSO concentration of the compound was 0.5% at last. The plate was placed in a 37° C., 5% CO2 constant temperature incubator for 7 days.
# (§4) 20 μL/well of CellTiter-Glo® 3D to b) was added to 384-well cell culture plate, and the plate was shook at 320 rpm for 20 min in the dark, and incubated at room temperature in the dark for 2 hrs.
# (§5) The luminescence value was read using an Envision multi-functional microplate reader.
# (§6) The inhibition rate (IR) of the test compound was calculated using the following formula: IR (%)=(1−(RLU compound−RLU blank control)/(RLU meidum control−RLU blank control))*100%. The inhibition rates of different concentrations of compounds were calculated in Excel, and then the inhibition curves were plotted and the related parameters (including the minimum inhibition rate, maximum inhibition rate and IC50) were calculated using GraphPad Prism software.
# AGS = experiment: Cell proliferation inhibition, AGS (CellTiter-Glo 3D, 7 days); assay type: cell-based; settings: Homo sapiens, 168 h
# Experimental: as §1, §2, §3, §4, §5, §6
# AsPC-1 = experiment: Cell proliferation inhibition, AsPC-1 (CellTiter-Glo 3D, 7 days); assay type: cell-based; settings: AsPC-1, 7 days
# Experimental: as §1, §2, §3, §4, §5, §6
# in vivo = settings: male, ICR, mouse, po, 30 mg/kg
# Experimental: Male ICR mice, weighing 22-24 g, were fasted overnight and orally administered with 30 mg/kg of a solution of the compound of the present invention or the control compound [10% DMSO+60% PEG400+30% aqueous solution]. Blood was collected at 0.25, 0.5, 1.0, 2.0, 4.0, 6.0, 8.0, 12.0 and 24 h after administration of the compound of the present invention respectively, and the concentration of the compound of the present invention or the control compound in plasma was determined by LC/MS/MS.
Compound,IC50 (GP2D; 168 h) [nM],"IC50 (AsPC-1; Homo sapiens, ASPC1, 168 h) [nM]",also measured
"Nc1cc(F)c(C(F)(F)F)c(-c2ncc3c(N4C[C@H]5CC[C@@H](C4)N5)nc(OC[C@@]45CCCN4C[C@@]4(CC4(F)F)C5)nc3c2F)c1Cl [Example 36, 3-(4-((1R,5S)-3,8-diazabicyclo[3.2.1]octan-3-yl)-2-(((1S,7a'S)-2,2-difluorodihydro-1′H,3′H-spiro[cyclopropan-1,2′-pyrrolizin]-7a′(5′H)-yl)methoxy)-8-fluoropyridino[4,3-d]pyrimidin-7-yl)-2-chloro-5-fluoro-4-(trifluoromethyl)aniline]",20.4,167,IC50 (AGS): 298 nM
"Nc1cc(-c2ncc3c(N4C[C@H]5CC[C@@H](C4)N5)nc(OC[C@@]45CCCN4C[C@@]4(CC4(F)F)C5)nc3c2F)c(C(F)(F)F)c(Cl)c1F [Example 41, 5-(4-((1R,5S)-3,8-diazabicyclo[3.2.1]octan-3-yl)-2-(((1S,7a'S)-2,2-difluorodihydro-1′H,3′H-spiro[cyclopropan-1,2′-pyrrolizin]-7a′(5′H)-yl)methoxy)-8-fluoropyridino[4,3-d]pyrimidin-7-yl)-3-chloro-2-fluoro-4-(trifluoromethyl)aniline]",1.41,14.2,IC50 (AGS): 16.6 nM
"C#Cc1c(F)ccc2cc(O)cc(-c3ncc4c(N5C[C@H]6CC[C@@H](C5)N6)nc(OC[C@@]56CCCN5C[C@@]5(CC5(F)F)C6)nc4c3F)c12 [Example 16B-1, 4-(4-((1R,5S)-3,8-diazabicyclo[3.2.1]octan-3-yl)-2-(((1S,7a'S)-2,2-difluorodihydro-1′H,3′H-spiro[cyclopropan-1,2′-pyrrolizin]-7a′(5′H)-yl)methoxy)-8-fluoropyridino[4,3-d]pyrimidin-7-yl)-5-ethynyl-6-fluoronaphthalen-2-ol]",0.2,1.24,IC50 (AGS): 1.37 nM
N#Cc1c(N)sc2c(F)ccc(-c3ncc4c(N5CC6CCC(C5)N6)nc(OC[C@@]56CCCN5C[C@@]5(CC5(F)F)C6)nc4c3F)c12 [Example 24],2.5,62,AUC(0-inf) (in vivo): 1270 ng·h/mL; AUC(0-t) (in vivo): 1250 ng·h/mL; Cmax (in vivo): 461 ng/mL; Tmax (in vivo): 0.5 h; half-life (in vivo): 4.74 h
"Cc1cc(N)c(F)c(-c2ncc3c(N4C[C@H]5CC[C@@H](C4)N5)nc(OC[C@@]45CCCN4C[C@@]4(CC4(F)F)C5)nc3c2F)c1C(F)(F)F [Example 26, 3-(4-((1R,5S)-3,8-diazabicyclo[3.2.1]octan-3-yl)-2-(((1S,7a'S)-2,2-difluorodihydro-1′H,3′H-spiro[cyclopropan-1,2′-pyrrolizin]-7a′(5′H)-yl)methoxy)-8-fluoropyridino[4,3-d]pyrimidin-7-yl)-2-fluoro-5-methyl-4-(trifluoromethyl)aniline]",,,AUC(0-inf) (in vivo): 3770 ng·h/mL; AUC(0-t) (in vivo): 3380 ng·h/mL; Cmax (in vivo): 462 ng/mL; Tmax (in vivo): 0.25 h; half-life (in vivo): 6.97 h
"C#Cc1c(F)ccc2cc(O)cc(-c3ncc4c(N5CCCC(C)(N)C5)nc(OC[C@@]56CCCN5C[C@@]5(CC5(F)F)C6)nc4c3F)c12 (stereo partly drawn) [Example 29, 4-(4-(3-amino-3-methylpiperidin-1-yl)-2-(((1S,7a'S)-2,2-difluorodihydro-1′H,3′H-spiro[cyclopropan-1,2′-pyrrolizin]-7a′(5′H)-yl)methoxy)-8-fluoropyridino[4,3-d]pyrimidin-7-yl)-5-ethynyl-6-fluoronaphthalen-2-ol]",17.7,180,
"Fc1c(-c2c(C(F)(F)F)ccc3[nH]ncc23)ncc2c(N3CC4CCC(C3)N4)nc(OC[C@@]34CCCN3C[C@@]3(CC3(F)F)C4)nc12 [Example 33, (1S,7a'S)-7a′-(((4-((1R,5S)-3,8-diazabicyclo[3.2.1]octan-3-yl)-8-fluoro-7-(5-(trifluoromethyl)-1H-indazol-4-yl)pyridino[4,3-d]pyrimidin-2-yl)oxy)methyl)-2,2-bifluorotetrahydro-1′H,3′H-spiro[cyclopropan-1,2′-pyrrolizin]]",> 100,> 1000,
"Nc1cnc(C(F)(F)F)c(-c2ncc3c(N4C[C@H]5CC[C@@H](C4)N5)nc(OC[C@@]45CCCN4C[C@@]4(CC4(F)F)C5)nc3c2F)c1 [Example 52, 5-(4-((1R,5S)-3,8-diazabicyclo[3.2.1]octan-3-yl)-2-(((1S,7a'S)-2,2-difluorodihydro-1′H,3′H-spiro[cyclopropan-1,2′-pyrrolizin]-7a′(5′H)-yl)methoxy)-8-fluoropyridino[4,3-d]pyrimidin-7-yl)-6-(trifluoromethyl)pyridin-3-amine]",> 100,> 1000,
"COc1c(-c2c(F)c(N)cc(C)c2C(F)(F)F)ncc2c(N3C[C@H]4CC[C@@H](C3)N4)nc(OC[C@@]34CCCN3C[C@@]3(CC3(F)F)C4)nc12 [Example 30, 3-(4-((1R,5S)-3,8-diazabicyclo[3.2.1]octan-3-yl)-2-(((1S,7a'S)-2,2-difluorodihydro-1′H,3′H-spiro[cyclopropan-1,2′-pyrrolizin]-7a′(5′H)-yl)methoxy)-8-methoxypyridino[4,3-d]pyrimidin-7-yl)-2-fluoro-5-methyl-4-(trifluoromethyl)aniline]",> 100,> 1000,
"C#Cc1c(F)ccc2cc(O)cc(-c3ncc4c(N5C[C@H]6CC[C@@H](C5)N6)nc(OC[C@@]56C[C@H](F)CN5C[C@]5(CC5(F)F)C6)nc4c3F)c12 [Example 15H, 4-(4-((1R,5S)-3,8-diazabicyclo[3.2.1]octan-3-yl)-8-fluoro-2-(((1R,6'S,7a′R)-2,2,6′-trifluorodihydro-1′H,3′H-spiro[cyclopropan-1,2′-pyrrolizin]-7a′(5′H)-yl)methoxy)pyridino[4,3-d]pyrimidin-7-yl)-5-ethynyl-6-fluoronaphthalen-2-ol]",9.3,226,
"CS(=O)(=O)Nc1cc(Cl)c(C(F)(F)F)c(-c2ncc3c(N4C[C@H]5CC[C@@H](C4)N5)nc(OC[C@@]45CCCN4C[C@@]4(CC4(F)F)C5)nc3c2F)c1 [Example 39, N-(3-(4-((1R,5S)-3,8-diazabicyclo[3.2.1]octan-3-yl)-2-(((1S,7a'S)-2,2-difluorodihydro-1′H,3′H-spiro[cyclopropan-1,2′-pyrrolizin]-7a′(5′H)-yl)methoxy)-8-fluoropyridino[4,3-d]pyrimidin-7-yl)-5-chloro-4-(trifluoromethyl)phenyl)methanesulfonamide]",38.3,521,
"Nc1cc(F)c(C(F)(F)F)c(-c2ncc3c(N4C[C@H]5CC[C@@H](C4)N5)nc(OC[C@@]45CCCN4C[C@@]4(CC4(F)F)C5)nc3c2F)c1 [Example 44, 3-(4-((1R,5S)-3,8-diazabicyclo[3.2.1]octan-3-yl)-2-(((1S,7a'S)-2,2-difluorodihydro-1′H,3′H-spiro[cyclopropan-1,2′-pyrrolizin]-7a′(5′H)-yl)methoxy)-8-fluoropyridino[4,3-d]pyrimidin-7-yl)-5-fluoro-4-(trifluoromethyl)aniline]",1.6,23.3,
"C#Cc1c(F)ccc2cc(O)cc(-c3ncc4c(N5C[C@@H]6CC[C@](C)(C5)N6)nc(OC[C@@]56CCCN5C[C@@]5(CC5(F)F)C6)nc4c3F)c12 [Example 20B, 4-(2-(((1S,7a'S)-2,2-difluorodihydro-1′H,3′H-spiro[cyclopropan-1,2′-pyrrolizin]-7a′(5′H)-yl)methoxy)-8-fluoro-4-((1R,5S)-1-methyl-3,8-diazabicyclo[3.2.1]octan-3-yl)pyridino[4,3-d]pyrimidin-7-yl)-5-ethynyl-6-fluoronaphthol-2-ol]",,,IC50 (GP2D): 0.58 nM; IC50 (AsPC-1): 4.86 nM
"Nc1nc2c(-c3ncc4c(N5C[C@H]6CC[C@@H](C5)N6)nc(OC[C@@]56CCCN5C[C@@]5(CC5(F)F)C6)nc4c3F)ccc(F)c2s1 [Example 23, 4-(4-((1R,5S)-3,8-diazabicyclo[3.2.1]octan-3-yl)-2-(((1S,7a'S)-2,2-difluorodihydro-1′H,3′H-spiro[cyclopropan-1,2′-pyrrolizin]-7a′(5′H)-yl)methoxy)-8-fluoropyridino[4,3-d]pyrimidin-7-yl)-7-fluorobenzo[d]thiazol-2-amine]",> 100,> 1000,
"C#Cc1c(F)ccc2cc(O)cc(-c3ncc4c(N5CCC6CCC(C5)N6)nc(OC[C@@]56CCCN5C[C@@]5(CC5(F)F)C6)nc4c3F)c12 (stereo partly drawn) [Example 28, 4-(4-(3,9-diazabicyclo[4.2.1]nonan-3-yl)-2-(((1S,7a'S)-2,2-difluorodihydro-1′H,3′H-spiro[cyclopropan-1,2′-pyrrolizin]-7a′(5′H)-yl)methoxy)-8-fluoropyridino[4,3-d]pyrimidin-7-yl)-5-ethynyl-6-fluoronaphthalen-2-ol]",19.8,188,
"C#Cc1c(F)ccc2cc(O)cc(-c3ncc4c(N5C[C@H]6CC[C@@H](C5)N6)nc(OCC56CC(F)(F)CN5CC5(CC5)C6)nc4c3F)c12 (stereo partly drawn) [Example 14, 4-(4-((1R,5S)-3,8-diazabicyclo[3.2.1]octan-3-yl)-2-((6′,6′-difluorotetrahydro-3′-H-spiro[cyclopropan-1,2′-pyrrolizin]-8a′(1′H)-yl)methoxy)-8-fluoropyridino[4,3d]pyrimidin-7-yl)-5-ethynyl-6-fluoronaphthalen-2-ol]",,,IC50 (GP2D): > 100 nM; IC50 (AsPC-1): 921 nM
